Non-standard residues stand in square brackets, D forms with d. Residues, ends and D or L forms follow the SMILES beside them. *: point of attachment. Cha = N[C@@H](CC1CCCCC1)C(=O)O; dChg = N[C@@H](C(=O)O)C1CCCCC1; pNA = O=[N+]([O-])c1ccc(N*)cc1; AMC = Cc1cc(=O)oc2cc(N*)ccc12; βNA = c1ccc2cc(N*)ccc2c1
Tests used:
Format in all cases: biochemical
[1] = biological target: T1, Submandibularis-Kallikrein (Homo sapiens, UniProt P06870); assay: Cleavage of chromogenic substrate by submandibular (glandular) kallikrein in human sputum; conditions: 1 ml human sputum, per min; Substratkonzentration 2 x 10^-4 molar
T1 construct: Man mischt 0,5 ml Sputum mit 2 ml TRIS-Imidazol-Puffer; from tissue; host or cells: human sputum
Description: 2. Bestimmung des Glandulärkallikreins im Sputum: • Man mischt 0,5 ml Sputum mit 2 ml TRIS-Imidazol-Puffer (Ionenstärke 1,0) und präinkubiert die Mischung 5 Min. bei 37°C. Das Inkubat wird zentrifugiert. In eine Testküvette wird 1,5 ml dest. H2O von 37°C vorgelegt und mit 0,25 ml des Zentrifugats versetzt. Die Komponenten werden gut gemischt. Dann wird 0,2 ml 2 x 10-^3 molare wässrige Substratlösung zugesetzt und gemischt. Dann wird bei 405 nm die Extinktions- änderung kontinuierlich mittels eines Schreibers während 5-10 Min. verfolgt. Aus dem ermittelten Δ OD pro Min. wird mittels der nachstehenden Formel die Kallikreinaktivität pro ml Sputum in mU errechnet: [formula] • F = 5 • V = 1,95 • v = 0,25 • 1 U (Einheit) = Enzymmenge, die während 1 Min. 1 µMol Substrat unter optimalen oder sonst festgelegten Bedingungen in Bezug auf pH, Ionenstärke, Temperatur und Substratkonzentration zu spalten vermag
Bei der Messung des durch die enzymatische Hydrolyse des Substrates gebildeten Spaltproduktes RrNH2 geht man von der Voraussetzung aus, dass das Spaltprodukt ein UV-Spektrum besitzt, das von demjenigen des Substrates verschieden und in Richtung höherer Wellenlängen verschoben ist. Die Absorption des Substrates bei 405 nm ist praktisch Null. p-Nitroanilin als Spaltprodukt weist ein Absorptionsmaximum bei 380 nm und einen molaren Extinktionskoeffizienten von 13'200 auf. Bei 405 nm ist der Extinktionskoeffizient nur wenig niedriger, d.h. […] Der Grad der enzymatischen Hydrolyse des Substrates, welcher der Menge des abgespaltenen p-Nitroanilins proportional ist, lässt sich durch spektrophotometrische Messung bei 405 nm bestimmen. Auch bei Anwesenheit eines Ueberschusses an Substrat wird die Messung bei 405 nm nicht gestört. […]

Urinkallikrein = biological target: T2, Urinkallikrein (Homo sapiens, UniProt P06870); assay: Cleavage of chromogenic substrate by urinary kallikrein in human urine; conditions: 1 ml human urine (pooled morning urine of healthy persons), per min; Substratkonzentration 2 x 10^-4 molar
T2 construct: 1 ml Urin und 1 ml TRIS-Imidazol-Puffer mit pH 7,9; from tissue; host or cells: human urine
Description: 1. Bestimmung von Urinkallikrein.
1 ml Urin und 1 ml TRIS-Imidazol-Puffer mit pH 7,9 und Ionenstärke 1,0 werden 5 Min. bei 37°C inkubiert undcänn zentrifugiert, um Sedimente zu entfernen.
In einer-Plastikküvette werden 1,4 ml dest. H20 von 37°C und 0,4 ml des Zentrifugats gut gemischt. Zu dieser Mischung gibt man 0,2 ml einer 2 x 10^-3 molaren wässrigen Substratlösung und durchmischt die Komponenten schnell. Dieses Gemisch wird genau 15 Min. bei 37°C inkubiert. Dann wird dem Reaktionsgemisch 0,2 ml Eisessig zugemischt, um die Enzymreaktion zu unterbrechen. Zur Farbmessung verwendet man eine Vergleichsprobe (Blindprobe), die aus den gleichen Komponenten zusammengesetzt ist, wobei jedoch der Eisessig vor Zugabe des Substrates zugesetzt wird, um die Enzymreaktion zu verhindern. Dann wird bei 405 nm photometrisch oder spektrophotometrisch die Menge der gebildeten farbigen Verbindung RNH 2 aus der Differenz zwischen der Blindprobe und der zu bestimmenden Probe ermittelt. Aus dem ermittelten Wert wird die Urinkallikreinaktivität im Urin nach der folgenden Formel berechnet: [formula] • Δ OD = Zunahme der optischen Dichte bei 405 nm während 15 Min. • V = Totalvolumen des Bestimmungsansatzes = 2,2 ml • 1000 = Umrechnungsfaktor zur Umwandlung von U in mU • F = Verdünnungsfaktor des Urins (2) • v = Volumen der Probe = 0,4 ml • ε = Extinktionskoeffizient dividiert durch 1000 = 10,4
Bei der oben beschriebenen Bestimmungsmethode misst man somit die Summe der Aktivitäten von Urinkallikrein und Urokinase. Um die genaue Urinkallikreinaktivität zu erhalten, muss man die Urokinaseaktivität abziehen, welche dadurch bestimmt werden kann, dass man in einem Vergleichsversuch durch Zugabe von 0,075 Einheiten Trypsininhibitor (Trypsininhibitor aus Rinderlunge) pro ml Puffer die Urinkallikreinaktivität vollständig hemmt und nur die Urokinaseaktivität misst.
(§1) Bei der Messung des durch die enzymatische Hydrolyse des Substrates gebildeten Spaltproduktes RrNH2 geht man von der Voraussetzung aus, dass das Spaltprodukt ein UV-Spektrum besitzt, das von demjenigen des Substrates verschieden und in Richtung höherer Wellenlängen verschoben ist. Die Absorption des Substrates bei 405 nm ist praktisch Null. p-Nitroanilin als Spaltprodukt weist ein Absorptionsmaximum bei 380 nm und einen molaren Extinktionskoeffizienten von 13'200 auf. Bei 405 nm ist der Extinktionskoeffizient nur wenig niedriger, d.h. […] Der Grad der enzymatischen Hydrolyse des Substrates, welcher der Menge des abgespaltenen p-Nitroanilins proportional ist, lässt sich durch spektrophotometrische Messung bei 405 nm bestimmen. Auch bei Anwesenheit eines Ueberschusses an Substrat wird die Messung bei 405 nm nicht gestört.
(§2) Bei den Substraten, die als chromogene Gruppe eine 2-Naphthylamino-, 4-Methoxy-2-naphthylamino-, 4-Methyl-cumaryl-(7)-amino- oder 1,3-Di(methoxycarbonyl)-phenyl-(5)-amino-Gruppe enthalten, wird die Menge des Spaltproduktes R-NH2 durch Fluoreszenzspektrophotometrie gemessen. In einem aus Enzym, Puffer und Substrat bestehenden Testsystem misst man kontinuierlich das energieärmere emittierte Licht bei 400-470 nm, nachdem man das gebildete fluoreszierende Spaltprodukt mit energiereicherem Licht erregt hat. Die pro Zeiteinheit gebildete Menge Spaltprodukt ist ein Mass für die vorhandene Enzymaktivität. 1 µMol Spaltprodukt pro Minute entspricht definitionsgemäss 1 Enzym-Einheit, bezogen auf ein gegebenes Substrat.

Humanplasmin = biological target: T3, Humanplasmin (Homo sapiens, UniProt P00747); assay: Cleavage of chromogenic substrate by human plasmin; conditions: 1 CU-Einheit human plasmin, per min; Substratkonzentration 2 x 10^-4 molar
T3 construct: da bei der Aktivierung aus 1 Molekül Plasminogen 1 Molekül Plasmin entsteht
Description: 3. Bestimmung von Plasmin:
Man mischt 1,7 ml TRIS-Imidazol-Puffer (pH 7,5, Ionenstärke 0,2) bei 37°C mit 0,1 ml einer Lösung von Plasmin in 25%igem Glycerin und inkubiert die Mischung während 1 Min. bei 37°C. Dann gibt man der Mischung 0,2 ml einer wässrigen 2 x 10^-3 molaren Substxatlösung von 37°C zu und durchmischt das Ganze schnell. Man ermittelt dann kontinuierlich die pro Zeiteinheit aus dem Substrat freigesetzte Menge des Spaltproduktes R-NH2. Aus dem pro Min. ermittelten Wert berechnet man dann die Plasminaktivität pro ml Probe in mU nach der folgenden Formel: [formula] • ΔE = pro Min. freigesetzte Menge des Spaltproduktes • V = Totalvolumen des Testansatzes • v = Volumen der Probe • = Extinktionskoeffizient dividiert durch 1000
as §1, §2

Humanthrombin = biological target: T4, Humanthrombin (Homo sapiens, UniProt P00734); assay: Cleavage of chromogenic substrate by human NIH thrombin; conditions: 1 NIH-Einheit human thrombin, per min; Substratkonzentration 2 x 10^-4 molar
T4 construct: Humanplasmin und hu-manem NIH-Thrombin
Description: as §1, §2

T2 sequence (P06870 25-262): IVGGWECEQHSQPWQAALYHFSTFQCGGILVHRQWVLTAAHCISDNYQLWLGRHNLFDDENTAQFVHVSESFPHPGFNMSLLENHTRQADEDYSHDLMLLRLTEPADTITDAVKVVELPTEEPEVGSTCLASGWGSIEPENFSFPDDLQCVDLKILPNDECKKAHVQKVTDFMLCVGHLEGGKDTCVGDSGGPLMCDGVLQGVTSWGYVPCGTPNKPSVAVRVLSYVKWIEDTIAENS
T1 sequence (P06870 25-262): as above
T3 sequence (P00747 581-810 limits assumed): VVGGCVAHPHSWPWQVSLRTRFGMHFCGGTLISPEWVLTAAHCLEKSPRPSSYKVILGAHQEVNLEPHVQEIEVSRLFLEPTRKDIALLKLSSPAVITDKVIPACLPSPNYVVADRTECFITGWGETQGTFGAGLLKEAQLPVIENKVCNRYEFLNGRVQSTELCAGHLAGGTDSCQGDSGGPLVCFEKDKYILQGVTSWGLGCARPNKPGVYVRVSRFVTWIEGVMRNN
T3 sequence (P00747 97-580 partner limits assumed): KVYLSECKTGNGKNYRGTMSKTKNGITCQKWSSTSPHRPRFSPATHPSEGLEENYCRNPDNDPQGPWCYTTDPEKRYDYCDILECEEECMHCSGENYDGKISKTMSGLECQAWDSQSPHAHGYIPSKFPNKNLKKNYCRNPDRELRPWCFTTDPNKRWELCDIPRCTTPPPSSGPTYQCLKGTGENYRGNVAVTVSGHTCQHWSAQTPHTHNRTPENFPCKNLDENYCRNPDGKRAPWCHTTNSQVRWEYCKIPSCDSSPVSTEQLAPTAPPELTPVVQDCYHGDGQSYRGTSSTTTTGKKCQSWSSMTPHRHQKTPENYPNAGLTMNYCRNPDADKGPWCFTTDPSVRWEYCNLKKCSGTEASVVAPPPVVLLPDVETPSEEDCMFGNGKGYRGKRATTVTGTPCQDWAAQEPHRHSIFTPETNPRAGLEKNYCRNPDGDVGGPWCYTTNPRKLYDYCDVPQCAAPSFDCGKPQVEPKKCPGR

Menge des durch 1 ml Humansputum pro Min. freigesetzten Spaltproduktes R-NH2 in Nanomol (Submandibularis-Kallikrein) [1] | Menge des durch 1 ml Humanurin pro Min. freigesetzten Spaltproduktes R-NH2 in Nanomol (Urinkallikrein) (Urinkallikrein) | Menge des durch 1 CU-Einheit Humanplasmin pro Min. freigesetzten Spaltproduktes R-NH2 in Nanomol (Humanplasmin) (Humanplasmin) | Menge des durch 1 NIH-Einheit Thrombin pro Min. freigesetzten Spaltproduktes R-NH2 in Nanomol (Humanthrombin) (Humanthrombin) | Molecule
7,4 Nanomol | 0,77 Nanomol | 860 Nanomol | 18,7 Nanomol | 2HBr.H-D-CHT-Phe-Arg-pNA [Beispiel 17]
21,4 Nanomol | 1,20 Nanomol | 690 Nanomol | 45,8 Nanomol | 2HBr.H-D-CHT-Pro-Arg-pNA [Beispiel 23]
10,9 Nanomol | 0,59 Nanomol | 1252 Nanomol | 9,5 Nanomol | 2HBr.H-D-CHT-Tyr-Arg-pNA [Beispiel 45]
31,2 Nanomol | 2,55 Nanomol | 430 Nanomol | – | Cc1cc(=O)oc2cc(NC(=O)[C@H](CCCNC(=N)N)NC(=O)[C@H](CC3CCCCC3)NC(=O)[C@H](N)C(C)C)ccc12 [Beispiel 3, 2HBr.H-D-Val-CHA-Arg-MCA] (H-[dV]-[Cha]-Arg-{AMC})
15,7 Nanomol | 0,60 Nanomol | 1120 Nanomol | – | Cc1cc(=O)oc2cc(NC(=O)[C@H](CCCCN)NC(=O)[C@H](Cc3ccccc3)NC(=O)[C@H](N)C3CCCCC3)ccc12 [Beispiel 4, 2HBr.H-D-CHG-Phe-Lys-MCA] (H-[dChg]-Phe-Lys-{AMC})
28,5 Nanomol | 2,42 Nanomol | 408 Nanomol | – | COC(=O)c1cc(NC(=O)[C@H](CCCNC(=N)N)NC(=O)[C@H](CC2CCCCC2)NC(=O)[C@H](N)C(C)C)cc(C(=O)OC)c1 [Beispiel 5, 2HBr.H-D-Val-CHA-Arg-DPA]
24,8 Nanomol | 0,72 Nanomol | 1215 Nanomol | – | COC(=O)c1cc(NC(=O)[C@H](CCCCN)NC(=O)[C@H](Cc2ccccc2)NC(=O)[C@H](N)C2CCCCC2)cc(C(=O)OC)c1 [Beispiel 6, 2HBr.H-D-CHG-Phe-Lys-DPA]
25,4 Nanomol | 2,38 Nanomol | 388 Nanomol | – | COc1cc(NC(=O)[C@H](CCCNC(=N)N)NC(=O)[C@H](CC2CCCCC2)NC(=O)[C@H](N)C(C)C)cc2ccccc12 [Beispiel 9, 2HBr.H-D-Val-CHA-Arg-4-MeO-2-NA]
14,9 Nanomol | 0,61 Nanomol | 1165 Nanomol | – | COc1cc(NC(=O)[C@H](CCCCN)NC(=O)[C@H](Cc2ccccc2)NC(=O)[C@H](N)C2CCCCC2)cc2ccccc12 [Beispiel 10, 2HBr.H-D-CHG-Phe-Lys-4-MeO-2-NA]

Molecule | Menge des durch 1 ml Humansputum pro Min. freigesetzten Spaltproduktes R-NH2 in Nanomol (Submandibularis-Kallikrein) [1] | Menge des durch 1 ml Humanurin pro Min. freigesetzten Spaltproduktes R-NH2 in Nanomol (Urinkallikrein) (Urinkallikrein) | Menge des durch 1 CU-Einheit Humanplasmin pro Min. freigesetzten Spaltproduktes R-NH2 in Nanomol (Humanplasmin) (Humanplasmin) | Menge des durch 1 NIH-Einheit Thrombin pro Min. freigesetzten Spaltproduktes R-NH2 in Nanomol (Humanthrombin) (Humanthrombin)
CC(C)C[C@H](NC(=O)[C@H](N)C(C)C)C(=O)N[C@@H](CCCNC(=N)N)C(=O)Nc1ccc([N+](=O)[O-])cc1 [A, 2HCl.H-D-Val-Leu-Arg-pNA, reference compound] (H-[dV]-Leu-Arg-pNA) | 12,2 Nanomol | 0,90 Nanomol | 83 Nanomol | –
CC(C)C[C@H](NC(=O)[C@H](N)C(C)C)C(=O)N[C@@H](CCCCN)C(=O)Nc1ccc([N+](=O)[O-])cc1 [B, 2HCl.H-D-Val-Leu-Lys-pNA, reference compound] (H-[dV]-Leu-Lys-pNA) | 5,7 Nanomol | 0,30 Nanomol | 347 Nanomol | –
NCCCC[C@H](NC(=O)[C@H](Cc1ccccc1)NC(=O)[C@H](N)C1CCCCC1)C(=O)Nc1ccc([N+](=O)[O-])cc1 [Beispiel 2, 2HBr.H-D-CHG-Phe-Lys-pNA] (H-[dChg]-Phe-Lys-pNA) | 25,6 Nanomol | 0,80 Nanomol | 1150 Nanomol | –
CC(C)[C@@H](N)C(=O)N[C@@H](CC1CCCCC1)C(=O)N[C@@H](CCCNC(=N)N)C(=O)Nc1ccc2ccccc2c1 [Beispiel 7, 2HBr.H-D-Val-CHA-Arg-2-NA] (H-[dV]-[Cha]-Arg-βNA) | 31,1 Nanomol | 2,55 Nanomol | 428 Nanomol | –
NCCCC[C@H](NC(=O)[C@H](Cc1ccccc1)NC(=O)[C@H](N)C1CCCCC1)C(=O)Nc1ccc2ccccc2c1 [Beispiel 8, 2HBr.H-D-CHG-Phe-Lys-2-NA] (H-[dChg]-Phe-Lys-βNA) | 17,6 Nanomol | 0,58 Nanomol | 1180 Nanomol | –
